Laboratory results taken from PubChem BioAssay (NCI).
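Here, GI50 denotes the concentration required for 50% inhibition of growth. TGI is the concentration that stops growth completely.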

Tests used:
Assay in all cases: DTP human tumour cell line panel, 384-well format
TK-10 renal = tested on: TK-10 renal
LOX IMVI melanoma = tested on: LOX IMVI melanoma
HOP-92 NSCLC = tested on: HOP-92 NSCLC
SNB-19 CNS = tested on: SNB-19 CNS
HS 578T breast = tested on: HS 578T breast
HCT-116 colon = tested on: HCT-116 colon
HOP-62 NSCLC = tested on: HOP-62 NSCLC
MALME-3M melanoma = tested on: MALME-3M melanoma
KM12 colon = tested on: KM12 colon
CCRF-CEM leukemia = tested on: CCRF-CEM leukemia
DU-145 prostate = tested on: DU-145 prostate
U251 glioblastoma = tested on: U251 glioblastoma
MCF7 breast = tested on: MCF7 breast
CAKI-1 renal = tested on: CAKI-1 renal
MDA-MB-468 breast = tested on: MDA-MB-468 breast
SF-295 CNS = tested on: SF-295 CNS
OVCAR-4 ovarian = tested on: OVCAR-4 ovarian
EKVX NSCLC = tested on: EKVX NSCLC
ACHN renal = tested on: ACHN renal
HCT-15 colon = tested on: HCT-15 colon
HCC-2998 colon = tested on: HCC-2998 colon
786-0 renal = tested on: 786-0 renal
SN12C renal = tested on: SN12C renal
M14 melanoma = tested on: M14 melanoma
RXF 393 renal = tested on: RXF 393 renal
NCI/ADR-RES ovarian = tested on: NCI/ADR-RES ovarian
OVCAR-8 ovarian = tested on: OVCAR-8 ovarian
IGROV1 ovarian = tested on: IGROV1 ovarian
SW-620 colon = tested on: SW-620 colon
OVCAR-5 ovarian = tested on: OVCAR-5 ovarian
SK-MEL-28 melanoma = tested on: SK-MEL-28 melanoma
SF-268 CNS = tested on: SF-268 CNS
NCI-H23 lung = tested on: NCI-H23 lung
NCI-H460 NSCLC = tested on: NCI-H460 NSCLC
SNB-75 CNS = tested on: SNB-75 CNS
HT29 colon = tested on: HT29 colon
UACC-62 melanoma = tested on: UACC-62 melanoma
NCI-H322M lung = tested on: NCI-H322M lung
SK-MEL-5 melanoma = tested on: SK-MEL-5 melanoma
T-47D breast = tested on: T-47D breast
UACC-257 melanoma = tested on: UACC-257 melanoma
UO-31 renal = tested on: UO-31 renal
RPMI-8226 leukemia = tested on: RPMI-8226 leukemia
NCI-H522 lung = tested on: NCI-H522 lung
MOLT-4 leukemia = tested on: MOLT-4 leukemia
PC-3 prostate = tested on: PC-3 prostate
A498 renal = tested on: A498 renal
BT-549 breast = tested on: BT-549 breast
SK-OV-3 ovarian = tested on: SK-OV-3 ovarian
MDA-MB-435 melanoma = tested on: MDA-MB-435 melanoma
K-562 leukemia = tested on: K-562 leukemia
A549 NSCLC = tested on: A549 NSCLC
NCI-H226 lung = tested on: NCI-H226 lung
SF-539 CNS = tested on: SF-539 CNS
MDA-MB-231 breast = tested on: MDA-MB-231 breast
HL-60(TB) leukemia = tested on: HL-60(TB) leukemia
COLO 205 colon = tested on: COLO 205 colon
OVCAR-3 ovarian = tested on: OVCAR-3 ovarian

CC(=O)N1CCN(CCOc2ccc(C3CCN(C4=Nn5c(nnc5C(F)(F)F)CC4)CC3)cc2)CC1
GI50 (TK-10 renal): 20.9 µM
TGI (TK-10 renal): > 100 µM
GI50 (LOX IMVI melanoma): 3.75 µM
TGI (LOX IMVI melanoma): 17.9 µM
GI50 (HOP-92 NSCLC): 14.5 µM
TGI (HOP-92 NSCLC): > 100 µM
GI50 (SNB-19 CNS): 17.9 µM
TGI (SNB-19 CNS): 83.4 µM
GI50 (HS 578T breast): 4.78 µM
TGI (HS 578T breast): 31.2 µM
GI50 (HCT-116 colon): 13.4 µM
TGI (HCT-116 colon): > 100 µM
GI50 (HOP-62 NSCLC): 4.71 µM
TGI (HOP-62 NSCLC): 25.9 µM
GI50 (MALME-3M melanoma): 11.6 µM
TGI (MALME-3M melanoma): 75.2 µM
GI50 (KM12 colon): 12 µM
TGI (KM12 colon): > 100 µM
GI50 (CCRF-CEM leukemia): 4.06 µM
TGI (CCRF-CEM leukemia): 19.3 µM
GI50 (DU-145 prostate): 32 µM
TGI (DU-145 prostate): > 100 µM
GI50 (U251 glioblastoma): 16.5 µM
TGI (U251 glioblastoma): 67.3 µM
GI50 (MCF7 breast): 3.42 µM
TGI (MCF7 breast): 83.1 µM
GI50 (CAKI-1 renal): 3.53 µM
TGI (CAKI-1 renal): > 100 µM
GI50 (MDA-MB-468 breast): 1.72 µM
TGI (MDA-MB-468 breast): 10 µM
GI50 (SF-295 CNS): 23.6 µM
TGI (SF-295 CNS): > 100 µM
GI50 (OVCAR-4 ovarian): 11.8 µM
TGI (OVCAR-4 ovarian): 71.7 µM
GI50 (EKVX NSCLC): 16.8 µM
TGI (EKVX NSCLC): > 100 µM
GI50 (ACHN renal): 15.3 µM
TGI (ACHN renal): 62.8 µM
GI50 (HCT-15 colon): 18.1 µM
TGI (HCT-15 colon): > 100 µM
GI50 (HCC-2998 colon): 6.17 µM
TGI (HCC-2998 colon): 24.2 µM
GI50 ([…]-0 renal): 8.6 µM
TGI (786-0 renal): 69.3 µM
GI50 (SN12C renal): 22.5 µM
TGI (SN12C renal): > 100 µM
GI50 (M14 melanoma): 10.9 µM
TGI (M14 melanoma): > 100 µM
GI50 (RXF 393 renal): 5.97 µM
TGI (RXF 393 renal): 27.5 µM
GI50 (NCI/ADR-RES ovarian): 24.1 µM
TGI (NCI/ADR-RES ovarian): 75.6 µM
GI50 (OVCAR-8 ovarian): 12.3 µM
TGI (OVCAR-8 ovarian): 60 µM
GI50 (IGROV1 ovarian): 6.07 µM
TGI (IGROV1 ovarian): 54.1 µM
GI50 (SW-620 colon): > 100 µM
TGI (SW-620 colon): > 100 µM
GI50 (OVCAR-5 ovarian): 15.1 µM
TGI (OVCAR-5 ovarian): > 100 µM
GI50 (SK-MEL-28 melanoma): 24.2 µM
TGI (SK-MEL-28 melanoma): > 100 µM
GI50 (SF-268 CNS): 2.83 µM
TGI (SF-268 CNS): 12.7 µM
GI50 (NCI-H23 lung): 8.08 µM
TGI (NCI-H23 lung): > 100 µM
GI50 (NCI-H460 NSCLC): 13.3 µM
TGI (NCI-H460 NSCLC): 36.6 µM
GI50 (SNB-75 CNS): 8.08 µM
TGI (SNB-75 CNS): 76.5 µM
GI50 (HT29 colon): 10.4 µM
TGI (HT29 colon): > 100 µM
GI50 (UACC-62 melanoma): 4.27 µM
TGI (UACC-62 melanoma): 88.8 µM
GI50 (NCI-H322M lung): 13 µM
TGI (NCI-H322M lung): > 100 µM
GI50 (SK-MEL-5 melanoma): 4.83 µM
TGI (SK-MEL-5 melanoma): 19.7 µM
GI50 (T-47D breast): 1.16 µM
TGI (T-47D breast): 7.99 µM
GI50 (UACC-257 melanoma): 4.87 µM
TGI (UACC-257 melanoma): 26.2 µM
GI50 (UO-31 renal): 22.9 µM
TGI (UO-31 renal): > 100 µM
GI50 (RPMI-8226 leukemia): 3.34 µM
TGI (RPMI-8226 leukemia): 13.4 µM
GI50 (NCI-H522 lung): 2.9 µM
TGI (NCI-H522 lung): 20.1 µM
GI50 (MOLT-4 leukemia): 4.72 µM
TGI (MOLT-4 leukemia): 21.4 µM
GI50 (PC-3 prostate): 9.08 µM
TGI (PC-3 prostate): > 100 µM
GI50 (A498 renal): 14.7 µM
TGI (A498 renal): 77.2 µM
GI50 (BT-549 breast): 5.94 µM
TGI (BT-549 breast): 39.8 µM
GI50 (SK-OV-3 ovarian): 6.93 µM
TGI (SK-OV-3 ovarian): 31.8 µM
GI50 (MDA-MB-435 melanoma): 32.8 µM
TGI (MDA-MB-435 melanoma): > 100 µM
GI50 (K-562 leukemia): 3.66 µM
TGI (K-562 leukemia): > 100 µM
GI50 (A549 NSCLC): 14.2 µM
TGI (A549 NSCLC): > 100 µM
GI50 (NCI-H226 lung): 15 µM
TGI (NCI-H226 lung): > 100 µM
GI50 (SF-539 CNS): 13.5 µM
TGI (SF-539 CNS): > 100 µM
GI50 (MDA-MB-231 breast): 5.58 µM
TGI (MDA-MB-231 breast): > 100 µM
GI50 (HL-60(TB) leukemia): 3.79 µM
TGI (HL-60(TB) leukemia): 14.7 µM
GI50 (COLO 205 colon): 15.2 µM
TGI (COLO 205 colon): > 100 µM
GI50 (OVCAR-3 ovarian): 7.08 µM
TGI (OVCAR-3 ovarian): 35.3 µM
